In PMC6057649, “Development of NanoLuc-PEST expressing Leishmania mexicana as a new drug discovery tool for axenic- and intramacrophage-based assays” (PLoS Neglected Tropical Diseases, 2018):
pEC50: −log10 of the molar value. Like-named read-outs stand apart in the source and are kept apart here.

Test system: NanoLuc-PEST expressing L. mexicana axenic amastigotes
Experiment: microbe, parasite or virus in culture
Type: cell-based
Details: for viability at 2 µM / viability at 10 µM: Leishmania mexicana, read-out: Relative Bioluminescence (%)
[1] = 2 µM compound, 72 hours, relative to DMSO only control, n = 4
[2] = 10 µM compound, 72 hours, relative to DMSO only control, n = 4

Row | Compound | Relative Bioluminescence (%) [1] | Relative Bioluminescence (%) [2] | other results
1 | CC(=O)NC[C@H]1CN(c2ccc(N3CCOCC3)c(F)c2)C(=O)O1 [MMV687803, Linezolid, reference compound] |  |  | viability at 2 µM [1]: 76.5%; viability at 10 µM [2]: 111%
2 | Cc1nn(Cc2ccccc2)c(Cl)c1C(=O)NC1CCCCCC1 [MMV063404] | 86.21% | 79.51% | 
3 | CN1CCN(c2nccc3[nH]c(-c4cccc(F)c4)cc23)CC1 [MMV393144] | 92.24% | 81.97% | 
4 | NCCN(C(=O)c1ccc(Cl)cc1Cl)c1ccc(OCc2ccc(Cl)cc2)cc1 [MMV688371] | 95.57% | 61.94% | 
5 | Nc1ncnc2c1ncn2[C@@H]1O[C@H](COS(=O)(=O)NC(=O)c2ccccc2O)[C@@H](O)[C@H]1O [MMV687700] | 67.55% | 61.64% | 
6 | Cc1ccc2nc(Cl)c(CNCc3cccs3)cc2c1 [MMV676439] | 83.45% | 95.86% | 
7 | O=C(C1CCCCC1)N1CC(=O)N2CCc3ccccc3C2C1 (centres unmarked) [MMV002529, Praziquantel, reference compound] |  |  | viability at 2 µM [1]: 64.8%; viability at 10 µM [2]: 93.8%
8 | CC1CS(=O)(=O)CCN1/N=C/c1ccc([N+](=O)[O-])o1 (centres unmarked) [MMV001499, Nifurtimox, reference compound] |  |  | viability at 2 µM (72 h): 7.65%; viability at 10 µM (72 h): -2.17%
9 | Cc1cc(C)n(-c2ccc(NC(=O)C3CCN(Cc4cnc(C)s4)CC3)cc2)n1 [MMV007625] | 85.10% | 76.47% | 
10 | CN(C)c1cc(NC(=O)Nc2ccccc2)c2ccccc2n1 [MMV006901] | 96.82% | 107.15% | 
11 | Cn1ncc2c(N3CCOCC3)nc(NCCc3c[nH]c4ccccc34)nc21 [MMV676382] | 73.92% | 64.75% | 
12 | c1ccc(Oc2ccc(-c3cc(CN4CCOCC4)[nH]n3)cc2)cc1 [MMV676161] | 108.65% | 116.07% | 
13 | COc1ccc(-c2cnc3ccc(NCc4ccc(S(N)(=O)=O)cc4)nn23)cn1 [MMV010545] | 70.73% | 68.48% | 
14 | CCCn1c(NC(=O)c2ccc3ccccc3n2)nc2ccccc21 [MMV1030799] | 37.62% | -5.56% | 
15 | CC1=Nc2ccc(Cl)cc2C(O)(c2ccc(C)cc2)N1CCN1CCCCC1 (centres unmarked) [MMV688279] | 70.45% | 75.33% | 
16 | CCCn1c(CNc2ccccc2O)nc2ccccc21 [MMV676445] | 79.21% | 77.96% | 
17 | CC(C)(C)n1nc(-c2ccccc2)c2c(N)ncnc21 [MMV688548] | 78.88% | 77.20% | 
18 | CC1(O)CC(c2nc(-c3ccc4ccc(-c5ccccc5)nc4c3)c3c(N)nccn23)C1 (centres unmarked) [MMV676605] | 81.06% | 84.63% | 
19 | Cc1ccccc1CN1CCC(O)(c2ccc(Cl)c(C(F)(F)F)c2)CC1 [MMV688846] | 63.77% | 60.58% | 
20 | FC(F)(F)c1nnc2ccc(Cl)nn12 [MMV069458] | 115.05% | 112.41% | 

Row | Compound | Relative Bioluminescence (%) [1] | Relative Bioluminescence (%) [2] | other results
21 | CCOc1ccc2cc(-c3nn(CC4CCN(C)CC4)c4ncnc(N)c34)ccc2c1 [MMV688854] | 92.07% | 66.13% | 
22 | CC(C)(CN)c1nc(-c2ccc(Cl)c(O)c2)c(-c2ccnc(N)n2)[nH]1 [MMV030734] | 80.21% | 87.08% | 
23 | Cc1cc(C(=O)Nc2cnn(Cc3ccc(Cl)cc3Cl)c2)no1 [MMV009054] | 106.08% | 100.62% | 
24 | C[C@H]1COC2(CCN(c3nc(=O)c4cc(C(F)(F)F)cc([N+](=O)[O-])c4s3)CC2)O1 [MMV676603] | 83.14% | 75.26% | 
25 | CC(C)(C)c1cc(C(=O)Nc2cccnc2)cc(C(=O)Nc2cccnc2)c1 [MMV020982] | 109.38% | 93.07% | 
26 | NS(=O)(=O)c1cncc(-c2ccc3nccc(-c4cn[nH]c4)c3n2)c1 [MMV024101] | 98.92% | 49.51% | 
27 | N#Cc1nc(-c2ccccc2)oc1S(=O)(=O)c1ccc(Cl)cc1 [MMV676412] | 0.46% | -0.09% | pEC50 (hit compounds from the axenic amastigote screen, S3 Table, read-out: EC50, Axenic Amastigotes): 6.59
28 | O=C(c1cc2ccccc2o1)N1CCN(Cc2ccc3c(c2)OCO3)CC1 [MMV676520] | 56.86% | 68.82% | 
29 | COc1cc(C2=NCCN2)cc2cc(-c3ccc(C4=NCCN4)cc3)oc12 [MMV688362] | 95.50% | 90.68% | 
30 | CC(C)(C)CN1C(=O)C(c2ccccc2)(c2ccccc2)N=C1N [MMV026550] | 91.50% | 87.66% | 
31 | Cc1ccc(S(=O)(=O)Nc2ccc(CN3CCN(C(=O)c4cccc(C#N)c4)CC3)cc2)cc1 [MMV689028] | 54.14% | 72.62% | 
32 | Cc1ccc2cc(C3NC(=O)c4ccccc4N3)c(Cl)nc2c1 (centres unmarked) [MMV019807] | 69.92% | 111.93% | 
33 | Nc1ccc(C(=O)Nc2ccc(-c3nc4ccccc4o3)cc2)cc1 [MMV007920] | 112.76% | 88.96% | 
34 | O=C1COCc2ccc(Br)cc2N1Cc1ccc(C(F)(F)F)cc1 [MMV032995] | 97.31% | 90.22% | 
35 | Cc1cc(C)c2cc(C(=O)NC3CCCCCCC3)[nH]c2c1 [MMV687146] | 98.04% | 84.77% | 
36 | CC(C)n1nc(-c2cc3c(Cl)cccc3[nH]2)c2c(N)ncnc21 [MMV688417] | 76.07% | -0.98% | 
37 | CON=C(C(=O)OC)c1ccccc1CON=C(C)c1cccc(C(F)(F)F)c1 [MMV688754, Trifloxystrobin] |  |  | viability at 2 µM [1]: 67.6%; viability at 10 µM [2]: -1.92%
38 | c1csc(-c2cnc3sc(NCC4CCOCC4)nn23)c1 [MMV010764] | 69.50% | 31.69% | 
39 | Levofloxacin (-)-ofloxacin [MMV687798, reference compound] | 83.03% | 74.50% | 
40 | CC(C)C(NC(=O)Cc1cccc2ccccc12)C(=O)Nc1cccc(C#N)c1 (centres unmarked) [MMV020591] | 87.56% | 94.51% | 

Row | Compound | Relative Bioluminescence (%) [1] | Relative Bioluminescence (%) [2] | other results
41 | Clc1ccc(CCNc2cc(-c3ccccc3)nc3ncnn23)cc1 [MMV688889] | 73.23% | 59.03% | 
42 | OC[C@H]1O[C@@H](n2c3ccc(Cl)cc3c3c(-c4cc5ccccc5o4)ncnc32)C(O)[C@H]1O (some centres unmarked) [MMV688921] | 84.76% | 105.56% | 
43 | c1ccc(-c2[nH]c3ccccc3c2C(c2ccccn2)N2CCCC2)cc1 (centres unmarked) [MMV688762] | 73.33% | 84.34% | 
44 | CN1CCCN(C(c2ccccc2)c2ccc(Cl)cc2)CC1 (centres unmarked) [MMV004168] | 64.14% | 52.89% | 
45 | Nc1cccnc1Nc1ccc(Cl)cc1 [MMV676524] | 60.00% | 65.52% | 
46 | COc1cccc(-c2cc3c(Nc4cccnc4)nccc3[nH]2)c1 [MMV392832] | 70.60% | 51.50% | 
47 | CS(=O)(=O)c1ccccc1C(=O)N(Cc1ccccc1)c1ccccc1 [MMV688798] | 64.37% | 62.11% | 
48 | O=C1O[C@@H](CO)CN1c1cc(F)c(C2=CCN(Cc3ccccc3)CC2)c(F)c1 [MMV687729] | 76.47% | 62.67% | 
49 | Clc1cccc(CO[C@H]2CCc3ccccc3[C@@H]2n2ccnn2)c1 [MMV676159] | 101.47% | 98.27% | 
50 | CO[C@H]1/C=C/O[C@@]2(C)Oc3c(C)c(O)c4c(O)c(c(/C=N/N5CCN(C)CC5)c(O)c4c3C2=O)NC(=O)/C(C)=C\C=C\[C@H](C)[C@H](O)[C@@H](C)[C@@H](O)[C@@H](C)[C@H](OC(C)=O)[C@@H]1C [MMV688775, Rifampicin, reference compound] |  |  | viability at 2 µM [1]: 47.6%; viability at 10 µM [2]: 2.74%
51 | CC(C)(C)OC(=O)N1CCN(c2cc(-c3ccc(Oc4ccccc4)cc3)n[nH]2)CC1 [MMV676057] | 119.16% | 36.52% | 
52 | CN1CCC(NCc2cccc(-c3ccc(S(=O)(=O)NCc4ccccc4)cc3)c2)CC1 [MMV022029] | 99.81% | 101.70% | 
53 | NC(CC(=O)c1ccc(Cl)cc1Cl)C(Cl)(Cl)Cl (centres unmarked) [MMV676468] | 106.85% | 84.33% | 
54 | CCOC(=O)NC(=O)c1ccsc1NC(=O)c1nc2ccccc2s1 [MMV090930] | 11.16% | -0.77% | 
55 | CCOC(=O)c1noc(N)c1-c1ccccc1 [MMV1236379] | 77.18% | 52.39% | 
56 | O=C(Nc1n[nH]c(=S)s1)c1cc(Br)ccc1Cl [MMV676492] | 60.28% | 23.83% | 
57 | COc1cccc(OCC(=O)c2ccc(Br)cc2)c1 [MMV676379] | 81.42% | 79.42% | 
58 | CNC(=O)C1Cc2ccccc2N1C(=O)Cc1ccc(F)cc1 (centres unmarked) [MMV188296] | 81.46% | 106.72% | 
59 | CCCn1nnc(NC(=O)COc2ccc(C3CCCCC3)cc2)n1 [MMV676597] | 85.91% | 73.07% | 
